Publication PMC5104769, “Concentration-Dependent Dual Mode of Zn Action at Serotonin 5-HT1A Receptors: In Vitro and In Vivo Studies” (Molecular neurobiology, 2015)

Key:
[1] = parameters: method as in PMID 20617034; conditions: cited from earlier work
Sprague Dawley rats = assay: Lower lip retraction (LLR) in rats; format: in vivo, rat; conditions: for Mean LLR score (A) VEH: max score 3/rat
Procedure: The experiments were performed on male Albino Swiss mice (23-25 g) and Sprague Dawley rats (200-250 g) from Charles River, Germany as well as […]-flx-YFP mice from Jackson Labs, Bangor ME and the Hen lab, respectively. The animals were kept under standard laboratory conditions with respect to lighting (light phase 7:00-19:00) and temperature (19-21 °C). Food and water were freely available. Each experimental group consisted of eight to ten animals. All of the animals were experimentally naive and were used only once in each test. The experiments were performed during the light period (9:00-14:00 h). All of the procedures were conducted according to the guidelines of the National Institutes of Health Animal Care and Use Committee and were approved by the Ethics Committees of the Institute of Pharmacology, Polish Academy of Sciences in Krakow and the Animal Care Committee, University of Ottawa. […] Controls were treated with the appropriate diluent, which was indicated as VEH on the graphs and in the tables. LLR was assessed according to the method described by Berendsen et al., [20]. The rats were individually placed in cages (30×25×25 cm) and were scored three times, 15, 30 and 45 min after the administration of Zn as follows: 0=lower incisors not visible, 0.5=partly visible and 1=completely visible. Zn was administered at doses of 2 and 5 mg Zn/kg (given as Zn hydroaspartate, Farmapol, Poland). The maximum total score was 3/rat. In addition, the effects of Zn and WAY-100635 (0.1 mg/kg; […] Sigma) were tested.

[2] = molecular target: T1, human 5-HT1AR stably expressed in HEK293 cells (Homo sapiens, UniProt P08908); assay: Saturation binding of [3H]-8-OH-DPAT in the absence and presence of Zn; conditions: Zn vs [3H]-8-OH-DPAT, nonlinear regression of saturation data, equation 1
T1 construct: The full-length human 5HTR1A complementary DNA (cDNA); membranes prepared from the cells
T1 sequence (P08908 1-422): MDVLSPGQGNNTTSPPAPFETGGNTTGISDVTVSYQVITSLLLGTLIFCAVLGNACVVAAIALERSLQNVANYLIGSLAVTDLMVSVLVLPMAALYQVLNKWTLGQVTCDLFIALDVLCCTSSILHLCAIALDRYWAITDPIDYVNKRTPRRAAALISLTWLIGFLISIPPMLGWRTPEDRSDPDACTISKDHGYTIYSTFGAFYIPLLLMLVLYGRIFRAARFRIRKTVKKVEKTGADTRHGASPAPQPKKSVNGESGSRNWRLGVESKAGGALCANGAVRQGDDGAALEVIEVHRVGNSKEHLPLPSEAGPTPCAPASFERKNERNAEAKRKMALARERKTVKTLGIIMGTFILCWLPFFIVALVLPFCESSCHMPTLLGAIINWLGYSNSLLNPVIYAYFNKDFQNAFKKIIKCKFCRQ
Procedure: The full-length human 5HTR1A complementary DNA (cDNA), which was cloned into the mammalian expression vector pcDNA3.1(+), was obtained from the Missouri S&T cDNA Resource Center (www.cdna.org). The receptor cDNA was stably transfected into human embryonic kidney cells (HEK293, ATCC) with the use of Lipofectamine 2000 (Invitrogen).
Cell pellets were thawed and homogenized in 20 volumes of 50 mM Tris–HCl buffer (pH 7.7) containing 0.1 mM EDTA and 10 mM MgCl2, using an Ultra Turrax tissue homogenizer. The pellets were then centrifuged twice at 35,000g for 20 min at 4 °C, with incubation for 15 min at 37 °C in between centrifugations. Membranes were aliquoted in tubes. Membrane protein concentrations were determined using the Pierce™ Coomassie (Bradford) Protein Assay Kit, with bovine serum albumin (BSA) as a standard.
The incubation buffer consisted of 50 mM Tris–HCl (pH 7.7), 10 mM MgCl2, 10 mM pargyline and 0.1 % ascorbic acid. Radioligand binding assays were performed by incubating 30 μg of protein of the membrane suspension in 96-well microtitre plates for 60 min at room temperature with shaking, in a total volume of 200 μl. The binding reactions were stopped by filtration through GF/C Unifilter plates using a harvester (PerkinElmer). The plate filters were dried, and 20 μl of Ultima Gold MV (PerkinElmer) was added. Radioactivity was measured using a MicroBeta TriLux counter (PerkinElmer).
All experiments were performed in triplicate, and the results were obtained from at least three independent experiments. The data are expressed as the mean±S.D. (standard deviation). The experimental data were analysed using GraphPad Prism 5.1 for Windows (GraphPad Software, San Diego California USA, www.graphpad.com).

β2 adrenergic receptors = test system: β2 adrenergic receptors; parameters: method as in PMID 11752207; conditions: cited from earlier work
Body temperature in mice = format: in vivo, mouse; conditions: Zn 2 and 5 mg/kg i.p., 30 and 60 min after administration
Procedure: The experiments were performed on male Albino Swiss mice (23-25 g) and Sprague Dawley rats (200-250 g) from Charles River, Germany as well as […]-flx-YFP mice from Jackson Labs, Bangor ME and the Hen lab, respectively. The animals were kept under standard laboratory conditions with respect to lighting (light phase 7:00-19:00) and temperature (19-21 °C). Food and water were freely available. Each experimental group consisted of eight to ten animals. All of the animals were experimentally naive and were used only once in each test. The experiments were performed during the light period (9:00-14:00 h). All of the procedures were conducted according to the guidelines of the National Institutes of Health Animal Care and Use Committee and were approved by the Ethics Committees of the Institute of Pharmacology, Polish Academy of Sciences in Krakow and the Animal Care Committee, University of Ottawa. […] Controls were treated with the appropriate diluent, which was indicated as VEH on the graphs and in the tables. […] The results were expressed as a change in body temperature with respect to the basal body temperature, which was measured at the beginning of the experiments.

[Zn+2] [Zn, Zinc]
extracellular Zn level reported as neurotoxic [1]: over 300 μM | Mean LLR score (A) VEH (Sprague Dawley rats; Zn 2 mg Zn/kg i.p. alone): 0.0±0.0 | Mean LLR score (B) 8-OH-DPAT 1 mg/kg (Sprague Dawley rats; Zn 2 mg/kg 45 min before 8-OH-DPAT 1 mg/kg): 1.17±0.98 | Mean LLR score (A) VEH (Sprague Dawley rats; Zn 5 mg Zn/kg i.p. alone): 0.0±0.0 | Mean LLR score (B) 8-OH-DPAT 1 mg/kg (Sprague Dawley rats; Zn 5 mg/kg 45 min before 8-OH-DPAT 1 mg/kg): 0.46±0.75 | effect on LLR induced by 8-OH-DPAT (in words) (Sprague Dawley rats; Zn 2 and 5 mg/kg or WAY-100635 0.1 mg/kg before 8-OH-DPAT 1 mg/kg): blocked the LLR induced by 8-OH-DPAT | induction of LLR (in words) (Sprague Dawley rats; given alone: 8-OH-DPAT 1 mg/kg, Zn 2 and 5 mg/kg, WAY-100635 0.1 mg/kg): did not evoke LLR | cooperativity factor α [2]: 0.37 | effect on agonist affinity (β2 adrenergic receptors; 5 μM of Zn): enhanced agonist affinity | effect on antagonist binding (β2 adrenergic receptors; 500 μM of Zn): inhibited antagonist binding | change in body temperature (Body temperature in mice): significantly and dose-dependently decreased body temperature
